26 molecules from patent US10106534B2 (CELGENE QUANTICEL RESEARCH, INC., priority 2014, dated 2018) can be followed below.

Each structure is given as a SMILES string.

Assay [1] concerns KYSE-150 esophageal carcinoma cell line. As to the kind of experiment: In vitro cell-based assay: cellular proliferation via BrdU incorporation (ELISA). The following applies: Homo sapiens, KYSE-150, 168 hours compound incubation. On the set-up: species or system human. In short, it runs like this: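 KYSE-150 cells (JMJD2C-amplified; SMAD4 and TP53 mutant), 2,000/well, were treated after overnight attachment with an 11-point series (100 μM to 2 nM) for 168 h. Proliferation was read by BrdU ELISA (2 h labelling, anti-BrdU-peroxidase, TMB, 450 nm) and IC50 fitted.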
(In general: Uptake of a labelled nucleoside into DNA is a usual measure of proliferation.)

In assay [2] the target is JMJD2C (Homo sapiens (Human), UniProt Q9H3R0). As to the kind of experiment: In vitro enzyme inhibition assay for JMJD2C activity (TR-FRET). The format is biochemical. The method, boiled down:
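Baculovirus JMJD2C (AA 2-372), 0.3 nM, with 300 nM biotin-H3K9me3 peptide and 2 μM α-ketoglutarate in HEPES pH 7.3 containing Fe(II) and ascorbate, 30 min at room temperature, 11-point dilutions. H3K9me2 product by TR-FRET (Eu-antibody/streptavidin-APC, 665/615 ratio); IC50 fitted.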
(In TR-FRET formats the signal depends on donor and acceptor labels being close together.)

Chain of JMJD2C (Q9H3R0 2-372): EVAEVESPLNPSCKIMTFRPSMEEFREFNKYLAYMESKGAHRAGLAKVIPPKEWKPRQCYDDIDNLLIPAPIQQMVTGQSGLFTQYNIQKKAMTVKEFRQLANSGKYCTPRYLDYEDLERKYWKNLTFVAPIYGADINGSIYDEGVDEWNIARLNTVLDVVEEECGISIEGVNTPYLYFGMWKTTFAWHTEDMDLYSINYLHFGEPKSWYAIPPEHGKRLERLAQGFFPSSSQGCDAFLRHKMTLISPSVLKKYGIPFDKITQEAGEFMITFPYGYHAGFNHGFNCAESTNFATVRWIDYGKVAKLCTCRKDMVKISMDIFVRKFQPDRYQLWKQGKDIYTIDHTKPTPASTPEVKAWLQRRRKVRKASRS

As to `Cc1cccc(N(C)c2ccc3c(c2)OCC[C@H]3CNc2cnccc2C(=O)O)n1` [Example 148, 3-({[(4R)-7-[methyl(6-methylpyridin-2-yl)amino]-3,4-dihydro-2H-1-benzopyran-4-yl]methyl}amino)pyridine-4-carboxylic acid], the IC50 in assay [1] and in assay [2] was 100 to 1000 nM in each case.

As to `COc1cccc(N(C)c2ccc3c(c2)CCC[C@H]3CNc2cnccc2C(=O)O)c1` [Example 150, 3-({[(1R)-6-[(3-methoxyphenyl)(methyl)amino]-1,2,3,4-tetrahydronaphthalen-1-yl]methyl}amino)pyridine-4-carboxylic acid], the values for the IC50 in assay [1] and in assay [2] were at most 100 nM and 100 to 1000 nM, respectively.

For the molecule `Cc1ccc(N(C)c2ccc3c(c2)OCC[C@H]3CNc2cnccc2C(=O)O)cc1F` [Example 151, 3-({[(4R)-7-[(3-fluoro-4-methylphenyl)(methyl)amino]-3,4-dihydro-2H-1-benzopyran-4-yl]methyl}amino)pyridine-4-carboxylic acid], the IC50 in assay [1] is at most 100 nM; in assay [2], 100 to 1000 nM.

Consider `CN(c1ccc2c(c1)OCC[C@H]2CNc1cnccc1C(=O)O)c1ccc(Cl)cn1` [Example 152, 3-({[(4R)-7-[(5-chloropyridin-2-yl)(methyl)amino]-3,4-dihydro-2H-1-benzopyran-4-yl]methyl}amino)pyridine-4-carboxylic acid], for which the IC50 in assay [1] and in assay [2] was 100 to 1000 nM throughout.

On to `CN(c1ccc2c(c1)CCC[C@H]2CNc1cnccc1C(=O)O)c1ccn(C)c(=O)c1` [Example 155, 3-({[(1R)-6-[methyl(1-methyl-2-oxo-1,2-dihydropyridin-4-yl)amino]-1,2,3,4-tetrahydronaphthalen-1-yl]methyl}amino)pyridine-4-carboxylic acid], for which the IC50 in assay [1] is over 10000 nM; in assay [2], 100 to 1000 nM.

In the case of `CN(c1ccc(CO)cc1)c1ccc2c(c1)CCC[C@H]2CNc1cnccc1C(=O)O` [Example 158, 3-({[(1R)-6-{[4-(hydroxymethyl)phenyl](methyl)amino}-1,2,3,4-tetrahydronaphthalen-1-yl]methyl}amino)pyridine-4-carboxylic acid], the IC50 in assay [1] and in assay [2] was 100 to 1000 nM throughout.

Regarding `CN(c1ccc(C2CC2)cc1)c1ccc2c(c1)CCC[C@H]2CNc1cnccc1C(=O)O` [Example 161, 3-({[(1R)-6-[(4-cyclopropylphenyl)(methyl)amino]-1,2,3,4-tetrahydronaphthalen-1-yl]methyl}amino)pyridine-4-carboxylic acid], the IC50 is at most 100 nM in assay [1] and 1000 to 10000 nM in assay [2].

Take `COCCN(c1ccc(C2CC2)cc1)c1ccc2c(c1)CCC[C@H]2CNc1cnccc1C(=O)O` [Example 163, 3-({[(1R)-6-[(4-cyclopropylphenyl)(2-methoxyethyl)amino]-1,2,3,4-tetrahydronaphthalen-1-yl]methyl}amino)pyridine-4-carboxylic acid]: the half-maximal inhibitory concentration (IC50) in assay [1] is at most 100 nM; in assay [2], 1000 to 10000 nM.

Take `CN(c1ccc(N2CCCC2)cc1)c1ccc2c(c1)CCC[C@H]2CNc1cnccc1C(=O)O` [Example 167, 3-({[(1R)-6-{methyl[4-(pyrrolidin-1-yl)phenyl]amino}-1,2,3,4-tetrahydronaphthalen-1-yl]methyl}amino)pyridine-4-carboxylic acid]: the IC50 in assay [1] is at most 100 nM; in assay [2], 100 to 1000 nM.

As to `Cc1cc(N(C)c2ccc3c(c2)CCC[C@H]3CNc2cnccc2C(=O)O)no1` [Example 171, 3-({[(1R)-6-[methyl(5-methyl-1,2-oxazol-3-yl)amino]-1,2,3,4-tetrahydronaphthalen-1-yl]methyl}amino)pyridine-4-carboxylic acid], the values for the IC50 in assay [1] and in assay [2] were over 10000 nM and 1000 to 10000 nM, respectively.

Regarding `COc1ccccc1N(C)c1ccc2c(c1)CCC[C@H]2CNc1cnccc1C(=O)O` [Example 172, 3-({[(1R)-6-[(2-methoxyphenyl)(methyl)amino]-1,2,3,4-tetrahydronaphthalen-1-yl]methyl}amino)pyridine-4-carboxylic acid], the IC50 in assay [1] and in assay [2] was 100 to 1000 nM in each case.

On to `CN(c1ccncc1)c1ccc2c(c1)CCC[C@H]2CNc1cnccc1C(=O)O` [Example 173, 3-({[(1R)-6-[methyl(pyridin-4-yl)amino]-1,2,3,4-tetrahydronaphthalen-1-yl]methyl}amino)pyridine-4-carboxylic acid], for which the IC50 in assay [1] is over 10000 nM; in assay [2] it was at most 100 nM.

In the case of `CN(c1ccc(C2=CCOCC2)cc1)c1ccc2c(c1)CCC[C@H]2CNc1cnccc1C(=O)O` [Example 174, 3-({[(1R)-6-{[4-(3,6-dihydro-2H-pyran-4-yl)phenyl](methyl)amino}-1,2,3,4-tetrahydronaphthalen-1-yl]methyl}amino)pyridine-4-carboxylic acid], the IC50 in assay [1] was at most 100 nM; in assay [2], 1000 to 10000 nM.

With `CN(c1ccc(C2CCOCC2)cc1)c1ccc2c(c1)CCC[C@H]2CNc1cnccc1C(=O)O` [Example 175, 3-({[(1R)-6-{methyl[4-(oxan-4-yl)phenyl]amino}-1,2,3,4-tetrahydronaphthalen-1-yl]methyl}amino)pyridine-4-carboxylic acid], the IC50 in assay [1] is at most 100 nM; in assay [2], 1000 to 10000 nM.

As for `C=Cc1ccc(N(C)c2ccc3c(c2)OCC[C@H]3CNc2cnccc2C(=O)O)cc1` [Example 176, 3-({[(4R)-7-[(4-ethenylphenyl)(methyl)amino]-3,4-dihydro-2H-1-benzopyran-4-yl]methyl}amino)pyridine-4-carboxylic acid], the figures for the IC50 in assay [1] and in assay [2] were at most 100 nM and 100 to 1000 nM, respectively.

For the molecule `COc1ccc(N(C)c2ccc3c(c2)CCC[C@H]3CNc2cnccc2C(=O)O)cc1` [Example 177, 3-({[(1R)-6-[(4-methoxyphenyl)(methyl)amino]-1,2,3,4-tetrahydronaphthalen-1-yl]methyl}amino)pyridine-4-carboxylic acid], the IC50 in assay [1] is at most 100 nM; in assay [2], 100 to 1000 nM.

For `COc1ccc(N(C)c2ccc3c(c2)OCC[C@H]3CNc2cnccc2C(=O)O)cc1` [Example 178, 3-({[(4R)-7-[(4-methoxyphenyl)(methyl)amino]-3,4-dihydro-2H-1-benzopyran-4-yl]methyl}amino)pyridine-4-carboxylic acid], the IC50 in assay [1] and in assay [2] was at most 100 nM each time.

For `CN(c1ccc(N2CCCC2)cc1)c1ccc2c(c1)OCC[C@H]2CNc1cnccc1C(=O)O` [Example 179, 3-({[(4R)-7-{methyl[4-(pyrrolidin-1-yl)phenyl]amino}-3,4-dihydro-2H-1-benzopyran-4-yl]methyl}amino)pyridine-4-carboxylic acid], the IC50 in assay [1] is at most 100 nM; in assay [2], 100 to 1000 nM.

Regarding `CN(c1ccc(N2CCC2)cc1)c1ccc2c(c1)CCC[C@H]2CNc1cnccc1C(=O)O` [Example 180, 3-({[(1R)-6-{[4-(azetidin-1-yl)phenyl](methyl)amino}-1,2,3,4-tetrahydronaphthalen-1-yl]methyl}amino)pyridine-4-carboxylic acid], the IC50 is at most 100 nM in assay [1] and 100 to 1000 nM in assay [2].

`CCOc1ccc(N(C)c2ccc3c(c2)OCC[C@H]3CNc2cnccc2C(=O)O)cc1` [Example 186, 3-({[(4R)-7-[(4-ethoxyphenyl)(methyl)amino]-3,4-dihydro-2H-1-benzopyran-4-yl]methyl}amino)pyridine-4-carboxylic acid]: the IC50 in assay [1] was at most 100 nM; in assay [2] it was 100 to 1000 nM.

Regarding `CN(c1ccc(-n2cccn2)cc1)c1ccc2c(c1)CCC[C@H]2CNc1cnccc1C(=O)O` [Example 188, 3-({[(1R)-6-{methyl[4-(1H-pyrazol-1-yl)phenyl]amino}-1,2,3,4-tetrahydronaphthalen-1-yl]methyl}amino)pyridine-4-carboxylic acid], the IC50 is at most 100 nM in assay [1] and 100 to 1000 nM in assay [2].

Regarding `CN(c1ccc(-n2cccn2)cc1)c1ccc2c(c1)OCC[C@H]2CNc1cnccc1C(=O)O` [Example 189, 3-({[(4R)-7-{methyl[4-(1H-pyrazol-1-yl)phenyl]amino}-3,4-dihydro-2H-1-benzopyran-4-yl]methyl}amino)pyridine-4-carboxylic acid], the IC50 in assay [1] and in assay [2] was 100 to 1000 nM each time.

`CN(c1ccc(N2CC(F)(F)C2)cc1)c1ccc2c(c1)OCC[C@H]2CNc1cnccc1C(=O)O` [Example 196, 3-({[(4R)-7-{[4-(3,3-difluoroazetidin-1-yl)phenyl](methyl)amino}-3,4-dihydro-2H-1-benzopyran-4-yl]methyl}amino)pyridine-4-carboxylic acid]: the IC50 in assay [1] was at most 100 nM; in assay [2], 100 to 1000 nM.

Turning to `COCCOc1ccc(N(C)c2ccc3c(c2)CCC[C@H]3CNc2cnccc2C(=O)O)cc1` [Example 197, 3-({[(1R)-6-{[4-(2-methoxyethoxy)phenyl](methyl)amino}-1,2,3,4-tetrahydronaphthalen-1-yl]methyl}amino)pyridine-4-carboxylic acid], the figures for the 50% inhibitory concentration (IC50) in assay [1] and in assay [2] were at most 100 nM and 100 to 1000 nM, respectively.

Take `CC(c1ccccc1)c1ccc2c(c1)OCC[C@H]2CNc1cnccc1C(=O)O` (stereo partly drawn) [Example 198, 3-({[(4R)-7-(1-phenylethyl)-3,4-dihydro-2H-1-benzopyran-4-yl]methyl}amino)pyridine-4-carboxylic acid]: the results for the IC50 in assay [1] and in assay [2] were at most 100 nM and 100 to 1000 nM, respectively.

As to `CC(C)c1ccc(N(C)c2ccc3c(c2)OCC[C@H]3CNc2cnccc2C(=O)O)nc1` [Example 199, 3-({[(4R)-7-{methyl[5-(propan-2-yl)pyridin-2-yl]amino}-3,4-dihydro-2H-1-benzopyran-4-yl]methyl}amino)pyridine-4-carboxylic acid], the IC50 in assay [1] was at most 100 nM; in assay [2], 100 to 1000 nM.

Broadly, the IC50 is the concentration that inhibits the measured activity by half.
